Assay results from ChEMBL document CHEMBL1201862, “PubChem BioAssay data set” (2004).
Activity calls are given as the source filed them.

Experiments:
[1] = target: T1, Neuropeptide Y receptor type 2 (Homo sapiens, UniProt P49146); format: functional, cell-based;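 further: HEK293 cells expressing the receptor and a CNG channel; stimulus was NPY near EC95 followed by isoproterenol to raise cAMP; antagonist potency measured as restoring cAMP signal that NPY suppresses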
T1 sequence (P49146 whole entry): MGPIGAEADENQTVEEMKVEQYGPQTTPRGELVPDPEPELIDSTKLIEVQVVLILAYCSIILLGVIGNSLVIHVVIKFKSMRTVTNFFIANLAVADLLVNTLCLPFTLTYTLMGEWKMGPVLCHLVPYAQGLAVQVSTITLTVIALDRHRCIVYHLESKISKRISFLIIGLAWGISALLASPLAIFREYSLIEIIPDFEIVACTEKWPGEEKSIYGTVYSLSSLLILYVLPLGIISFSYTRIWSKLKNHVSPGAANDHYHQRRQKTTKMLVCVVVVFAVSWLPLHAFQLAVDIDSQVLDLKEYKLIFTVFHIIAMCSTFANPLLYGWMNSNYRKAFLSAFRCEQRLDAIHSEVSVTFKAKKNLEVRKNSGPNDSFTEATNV

[2] = target: T2, Neuropeptide Y receptor type 1 (Homo sapiens, UniProt P25929); format: functional;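 further: HEK293 cells with a CNG channel challenged with NPY then isoproterenol; potency as antagonist that reverses NPY suppression of cAMP signal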
T2 sequence (P25929 whole entry): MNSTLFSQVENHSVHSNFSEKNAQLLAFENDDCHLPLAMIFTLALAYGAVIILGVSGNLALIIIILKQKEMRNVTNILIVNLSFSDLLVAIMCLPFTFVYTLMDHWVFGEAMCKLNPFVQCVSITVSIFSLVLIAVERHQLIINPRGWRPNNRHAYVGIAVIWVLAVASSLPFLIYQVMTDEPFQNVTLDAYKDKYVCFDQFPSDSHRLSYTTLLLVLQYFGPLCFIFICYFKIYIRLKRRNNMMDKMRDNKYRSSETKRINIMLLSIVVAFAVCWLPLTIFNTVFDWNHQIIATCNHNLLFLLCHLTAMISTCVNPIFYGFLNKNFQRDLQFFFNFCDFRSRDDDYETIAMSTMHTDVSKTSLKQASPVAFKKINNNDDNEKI

[3] = enhancers of respiration in Yfh1-depleted yeast, dose response, Friedreich's ataxia, plus single-dose screen (AID 1465); format: functional;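 further: yeast depleted of Yfh1p frataxin homolog grown on glycerol needing respiration; WST-1 tetrazolium dye reduction as measure of cellular dehydrogenase metabolic activity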
Streptococcus [4] = assay: Group A Streptococcus viability loss, dose response, counter-screen for streptokinase expression inhibitor project, luminescence, BacTiterGlo (AID 1915); format: functional, organism-based;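 further: potency for reduction of bacterial viability or growth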
[5] = cytotoxicity toward NIH3T3 fibroblasts, dose response, counter-screen, cell-based, ATP luminescence, mouse fibroblasts (AID 2010); format: functional;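 further: cells exposed to compound for about 90 hours before reading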
Streptokinase A = target: T3, Streptokinase A (Streptococcus pyogenes serotype M1, UniProt P10520); assay: S. pyogenes streptokinase expression inhibitors, potency, dose response, plasminogen activation absorbance, OD405 (AID 1914); format: functional, Streptococcus pyogenes M1 GAS;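 further: secreted streptokinase activity via plasminogen activation per viability signal from cell pellet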
T3 sequence (P10520 whole entry): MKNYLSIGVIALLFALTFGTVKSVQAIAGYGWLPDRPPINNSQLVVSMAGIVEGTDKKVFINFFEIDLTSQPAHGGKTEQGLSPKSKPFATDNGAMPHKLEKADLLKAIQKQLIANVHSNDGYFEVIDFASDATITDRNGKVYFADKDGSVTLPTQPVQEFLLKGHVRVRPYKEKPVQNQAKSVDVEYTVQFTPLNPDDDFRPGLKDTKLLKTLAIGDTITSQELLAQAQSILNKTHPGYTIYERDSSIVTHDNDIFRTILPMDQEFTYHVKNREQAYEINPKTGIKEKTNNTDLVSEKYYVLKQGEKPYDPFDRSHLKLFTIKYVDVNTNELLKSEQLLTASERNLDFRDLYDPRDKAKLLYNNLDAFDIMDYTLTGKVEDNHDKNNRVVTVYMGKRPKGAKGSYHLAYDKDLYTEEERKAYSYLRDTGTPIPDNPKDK

[6] = test system: Streptococcus sp. 'group A'; assay: growth inhibition of control SK(-) GAS strain, dose response, counter-screen for streptokinase expression inhibitor project, luminescence, kanamycin, BacTiterGlo, confirmation (AID 1900); format: functional, organism-based
[7] = inhibitors of intracellular T. cruzi replication, confirmation, NIH3T3 host cells, beta-gal luminescence (AID 2044); format: functional, cell-based;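 further: intracellular parasites grown in NIH/3T3 mouse fibroblasts as host cells; luminescent beta-galactosidase reporter signal from transgenic T. cruzi replicating inside host cells; inhibitors lower the luminescence signal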
[8] = microbe, parasite or virus in culture; format: functional; conditions: Mycobacterium tuberculosis
Streptococcus [9] = assay: Luminescence Microorganism-Based Dose Response Follow up to Identify Compounds Cytotoxic to Streptococcus. [Related pubchem assays: 1677 (Project Summary), 1915, 1914, 1902 (Retest at Dose), 1900 (Counter Screen), 1662 (Primary HTS)]; format: functional, organism-based
[10] = Counterscreen for IDE inhibitors: Luminescence-based cell-based high throughput dose response assay to identify compounds that are cytotoxic to HEK cells. [Related pubchem assays: 434962 (Primary screen (IDE inhibitors in singlicate)), 449730 (Counterscreen (Cytotoxicity in triplicate)), 435028 (Confirmation (IDE inhibitors in triplicate)) …; format: functional; conditions: HEK293
Insulin-degrading enzyme = target: T4, Insulin-degrading enzyme (Homo sapiens, UniProt P14735); assay: Dose Response: Fluorescence polarization-based cell-based high throughput dose response assay for inhibitors of insulin-degrading enzyme (IDE). [Related pubchem assays: 434962 (Primary screen (IDE inhibitors in singlicate)), 449730 (Counterscreen (Cytotoxicity in triplicate)), 435028 (Confirmation (IDE inhibitors in triplicate)), 434984 (Summary …; format: functional
T4 sequence (P14735 whole entry): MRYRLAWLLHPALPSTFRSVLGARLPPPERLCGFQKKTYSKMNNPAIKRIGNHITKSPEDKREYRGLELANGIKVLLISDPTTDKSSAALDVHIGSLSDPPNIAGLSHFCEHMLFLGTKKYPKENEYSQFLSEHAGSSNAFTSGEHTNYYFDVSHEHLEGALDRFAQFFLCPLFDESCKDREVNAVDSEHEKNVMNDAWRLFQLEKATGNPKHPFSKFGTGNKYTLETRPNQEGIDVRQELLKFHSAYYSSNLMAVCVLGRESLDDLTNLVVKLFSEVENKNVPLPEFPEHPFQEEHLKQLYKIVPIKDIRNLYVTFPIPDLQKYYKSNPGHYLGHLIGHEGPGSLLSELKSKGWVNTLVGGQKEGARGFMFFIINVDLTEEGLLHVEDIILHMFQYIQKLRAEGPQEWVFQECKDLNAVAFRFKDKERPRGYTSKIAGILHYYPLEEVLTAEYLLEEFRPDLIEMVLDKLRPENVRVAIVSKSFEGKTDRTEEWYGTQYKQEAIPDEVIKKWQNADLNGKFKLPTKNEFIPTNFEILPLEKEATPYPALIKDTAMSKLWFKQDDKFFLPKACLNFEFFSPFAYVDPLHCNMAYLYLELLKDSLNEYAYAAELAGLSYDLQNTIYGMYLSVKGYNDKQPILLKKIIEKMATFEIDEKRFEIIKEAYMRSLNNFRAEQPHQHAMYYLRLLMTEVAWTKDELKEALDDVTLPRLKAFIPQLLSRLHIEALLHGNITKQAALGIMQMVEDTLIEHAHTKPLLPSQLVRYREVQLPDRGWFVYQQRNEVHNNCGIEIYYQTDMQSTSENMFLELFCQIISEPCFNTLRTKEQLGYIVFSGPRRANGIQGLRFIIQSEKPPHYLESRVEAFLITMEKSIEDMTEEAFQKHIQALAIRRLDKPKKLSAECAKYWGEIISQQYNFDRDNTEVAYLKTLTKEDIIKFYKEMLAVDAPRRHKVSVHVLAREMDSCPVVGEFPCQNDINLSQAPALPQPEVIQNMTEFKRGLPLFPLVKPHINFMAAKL

[11] = target: T5, Corticotropin-releasing factor receptor 2/Corticotropin-releasing factor-binding protein (Homo sapiens, UniProt P24387+Q13324); assay: activators of CRF receptor 2 with binding protein – uHTS hits, confirmation (AID 602473); format: functional; conditions: read-out: EC50_Mean
T5 sequence (Q13324 whole entry): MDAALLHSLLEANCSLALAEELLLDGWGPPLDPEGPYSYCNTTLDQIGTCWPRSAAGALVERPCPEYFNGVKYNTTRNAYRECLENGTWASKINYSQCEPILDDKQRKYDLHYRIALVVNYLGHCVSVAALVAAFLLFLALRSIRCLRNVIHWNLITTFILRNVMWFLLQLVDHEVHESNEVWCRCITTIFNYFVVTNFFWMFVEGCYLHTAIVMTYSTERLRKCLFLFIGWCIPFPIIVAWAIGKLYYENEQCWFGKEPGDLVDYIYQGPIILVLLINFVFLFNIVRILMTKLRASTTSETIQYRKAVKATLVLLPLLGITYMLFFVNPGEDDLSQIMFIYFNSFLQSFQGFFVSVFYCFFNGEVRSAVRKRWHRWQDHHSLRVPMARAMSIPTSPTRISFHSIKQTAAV
T5 sequence (P24387 whole entry): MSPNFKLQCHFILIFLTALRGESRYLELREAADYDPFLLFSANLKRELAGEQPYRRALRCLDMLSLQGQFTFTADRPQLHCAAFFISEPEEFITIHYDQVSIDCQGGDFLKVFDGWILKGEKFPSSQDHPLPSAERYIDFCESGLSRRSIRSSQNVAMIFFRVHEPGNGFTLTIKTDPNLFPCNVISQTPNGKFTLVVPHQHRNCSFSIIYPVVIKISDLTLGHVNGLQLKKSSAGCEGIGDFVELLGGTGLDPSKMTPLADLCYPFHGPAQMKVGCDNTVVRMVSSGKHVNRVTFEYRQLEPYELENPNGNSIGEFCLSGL

[12] = target: T1, Neuropeptide Y receptor type 2; assay: NPY-Y2 antagonist potency, selectivity check, dose response, counter-screen for NPY-Y1 antagonist project, cell-based (AID 1278); format: functional
[13] = target: T2, Neuropeptide Y receptor type 1; assay: NPY-Y1 receptor antagonist potency, dose response, cell-based (AID 1277); format: functional

CCOc1nc(SCCOc2ccc(Cl)cc2Cl)nc(N(C)C)n1
IC50 [1]: 5.52 µM (active) | IC50 [2]: 5.54 µM (active)

CC1(OC(=O)C2CCCC2)C(=O)C=C2C=C(c3ccsc3)N(Cc3ccco3)C=C2C1=O (stereo not drawn)
EC50 [3]: > 100 µM (active)

Cc1cc(C)c2nc(-c3ccncc3)cc(C(=O)N3CCN(Cc4ccccc4Cl)CC3)c2c1
EC50 (Streptococcus [4]): > 150 µM (not active) | EC50 [5]: > 60 µM (not active) | EC50 (Streptokinase A): 10.3 µM (active) | EC50 [6]: 3.71 µM (active) | EC50 [7]: 2.35 µM (active) | CC50 [8]: > 40 µM (active) | EC50 (Streptococcus [9]): 9.94 µM (active)

CCN1/C(=C\C=C(C(C)=O)C(C)=O)Sc2ccccc21
IC50 [10]: 33.9 µM (not active) | IC50 (Insulin-degrading enzyme): 8.83 µM (active) | EC50 [11]: 4.9 µM (active)

COc1ccc(C(=O)/C(C#N)=N/Nc2cccc([N+](=O)[O-])c2)cc1
EC50 (Streptococcus [4]): 94.3 µM (active) | EC50 (Streptokinase A): > 150 µM (not active) | EC50 [6]: 22.8 µM (active) | IC50 [12]: > 35 µM (not active) | IC50 [13]: > 35 µM (not active)
